From patent US9765049B2, “N-cycloalkyl-N-[(fusedphenyl)methylene]-(thio)carboxamide derivatives” (BAYER CROPSCIENCE AG, priority 2013, dated 2017)
Where two headings read alike, the source gives them in different places.

How the values were obtained:
[1] = log P by HPLC on reversed-phase column (C 18), EEC Directive 79/831 Annex V.A8; format: physicochemical; details: for logP: Table 1, HPLC, 40° C., 0.1% aqueous formic acid and acetonitrile
Protocol: In table 1, the log P values were determined in accordance with EEC Directive 79/831 Annex V.A8 by HPLC (High Performance Liquid Chromatography) on a reversed-phase column (C 18), using the method described below: Temperature: 40° C.; Mobile phases: 0.1% aqueous formic acid and acetonitrile; linear gradient from 10% acetonitrile to 90% acetonitrile. Calibration was carried out using unbranched alkan-2-ones (comprising 3 to 16 carbon atoms) with known log P values (determination of the log P values by the retention times using linear interpolation between two successive alkanones). lambda-max-values were determined using UV-spectra from 200 nm to 400 nm and the peak values of the chromatographic signals.

[2] = test system: Alternaria brassicae; assay: In vivo preventive test on Alternaria brassicae (leaf spot on radish); details: 500 ppm, radish plants, preventive spray, evaluated 6 days after inoculation
Protocol: (§1) Example A: In Vivo Preventive Test on Alternaria brassicae (Leaf Spot on Radish) [table] The active ingredients are made soluble and homogenized in a mixture of Dimethyl sulfoxide/Acetone/Tween®80 and then diluted in water to the desired concentration. The young plants of radish are treated by spraying the active ingredient prepared as described above. Control plants are treated only with an aqueous solution of Acetone/Dimethyl sulfoxide/Tween® 80. After 24 hours, the plants are contaminated by spraying the leaves with an aqueous suspension of Alternaria brassicae spores. The contaminated radish plants are incubated for 6 days at 20° C. and at 100% relative humidity.

[3] = test system: Botrytis cinerea; assay: In vivo preventive test Botrytis cinerea (grey mould); details: gherkin plants
Protocol: (§2) Example B: In Vivo Preventive Test Botrytis cinerea (Grey Mould) [table] The active ingredients are made soluble and homogenized in a mixture of Dimethyl sulfoxide/Acetone/Tween®80 and then diluted in water to the desired concentration. The young plants of gherkin are treated by spraying the active ingredient prepared as described above. Control plants are treated only with an aqueous solution of Acetone/Dimethyl sulfoxide/Tween® 80. After 24 hours, the plants are contaminated by spraying the leaves with an aqueous suspension of Botrytis cinerea spores. The contaminated gherkin plants are incubated for 4 to 5 days at 17° C. and at 90% relative humidity.

[4] = test system: Puccinia recondita; assay: In vivo preventive test on Puccinia recondita (brown rust on wheat); details: 500 ppm, wheat plants, preventive spray, evaluated 11 days after inoculation
Protocol: as §1, with “C:” for “A:”, “Puccinia recondita (Brown Rust” for “Alternaria brassicae (Leaf Spot”, “Wheat)” for “Radish)”, “wheat” for “radish”, “Puccinia recondita” for “Alternaria brassicae”, “spores.” for “spores. The contaminated radish plants are incubated for 6 days at 20° C. and at 100% relative humidity.”

[5] = test system: Pyrenophora teres; assay: In vivo preventive test on Pyrenophora teres (net blotch on barley); details: 500 ppm, barley plants, preventive spray, evaluated 14 days after inoculation
Protocol: as §1, with “D:” for “A:”, “Pyrenophora teres (Net Blotch” for “Alternaria brassicae (Leaf Spot”, “Barley)” for “Radish)”, “barley” for “radish”, “Pyrenophora teres” for “Alternaria brassicae”, “spores.” for “spores. The contaminated radish plants are incubated for 6 days at 20° C. and at 100% relative humidity.”

[6] = test system: Septoria tritici; assay: In vivo preventive test on Septoria tritici (wheat); details: 500 ppm, wheat plants, preventive spray, evaluated 24 days after inoculation
Protocol: as §1, with “E:” for “A:”, “Septoria tritici (Wheat)” for “Alternaria brassicae (Leaf Spot on Radish)”, “wheat” for “radish”, “Septoria tritici” for “Alternaria brassicae”, “72 hours at 18° C. and at 100% relative humidity and then for 21” for “6”, “90%” for “100%”

[7] = test system: Sphaerotheca fuliginea; assay: In vivo preventive test on Sphaerotheca fuliginea (powdery mildew on cucurbits); details: 500 ppm, gherkin plants, preventive spray, evaluated 15 days after inoculation
Protocol: as §2, with “F:” for “B:”, “on Sphaerotheca fuliginea (Powdery Mildew on Cucurbits)” for “Botrytis cinerea (Grey Mould)”, “Sphaerotheca fuliginea” for “Botrytis cinerea”, “spores.” for “spores. The contaminated gherkin plants are incubated for 4 to 5 days at 17° C. and at 90% relative humidity.”

[8] = test system: Uromyces appendiculatus; assay: In vivo preventive test on Uromyces appendiculatus (bean rust); details: bean plants
Protocol: as §1, with “G:” for “A:”, “Uromyces appendiculatus (Bean Rust)” for “Alternaria brassicae (Leaf Spot on Radish)”, “bean” for “radish”, “Uromyces appendiculatus” for “Alternaria brassicae”, “spores.” for “spores. The contaminated radish plants are incubated for 6 days at 20° C. and at 100% relative humidity.”

[9] = test system: Pyricularia oryzae; format: in vivo; details: dose 500 ppm, rice plants, preventive spray, evaluated 6 days after inoculation
[10] = test system: Fusarium nivale (var. majus); assay: Efficacy against Fusarium nivale (var. majus) (wheat), curative test; format: in vivo; details: for Efficacy: evaluated 5 days after inoculation
Protocol: Example I: Efficacy Against Fusarium nivale (Var. Majus) (Wheat) [table] To produce a suitable preparation of active compound, 1 part by weight of active compound or active compound combination is mixed with the stated amounts of solvent and emulsifier, and the concentrate is diluted with water to the desired concentration. […] After the spray coating has dried on, the plants remain in a greenhouse under translucent incubation cloches at a temperature of approximately 10° C. and a relative atmospheric humidity of approximately 100%.

[11] = Table B, 500 ppm, preventive spray, evaluated 4 to 5 days after inoculation
[12] = Table G, 500 ppm, preventive spray, evaluated 11 days after inoculation

Row | SMILES | chromatographic logP [1] | Efficacy [2] [%] | Efficacy [3, 11] [%] | Efficacy [4] [%] | Efficacy [5] [%] | Efficacy [6] [%] | Efficacy [7] [%] | logP [1] | Efficacy ([3]; Table B2, dose 100 ppm) [%] | Efficacy ([3]; Table B2, dose 500 ppm) | protection ([3]; dose of 100 ppm and 500 ppm) | Efficacy ([8]; Table G2, dose 100 ppm) [%] | Efficacy ([8]; Table G2, dose 100 ppm, listed as 1.01) | Efficacy [9] [%] | Efficacy ([9]; listed as 1.01) | Efficacy ([10]; dose 250 ppm) [%] | Efficacy ([10]; dose 500 ppm) [%] | protection ([10]; dose of 250 ppm and 500 ppm) | Efficacy [8, 12] [%]
1 | Cn1nc(C(F)F)c(C(=O)N(Cc2cccc3c2C2CCC3C2=C(Cl)Cl)C2CC2)c1F (stereo not drawn) [I.08, N-cyclopropyl-N-([9-(dichloromethylene)-1,2,3,4-tetrahydro-1,4-methanonaphthalen-5-yl]methyl)-3-(difluoromethyl)-5-fluoro-1-methyl-1H-pyrazole-4-carboxamide] | 4.51 | 100 | 100 | 83 | 97 | 100 | 100 |  |  |  |  |  |  |  |  |  |  |  | 
2 | Cn1nc(C(F)F)c(C(=O)N(Cc2cccc3c2C2CCC3C2)C2CC2)c1F (stereo not drawn) [I.01] |  | 81 | 100 | 98 | 100 | 100 | 100 | 3.87 | 98 | 100/100 | at least 98% | 99 | at least 95% | 75 | at least 70% | 100 | 100 | total protection | 
3 | Cn1cc(C(=O)N(Cc2cccc3c2C2CCC3C2=C(Cl)Cl)C2CC2)c(C(F)F)n1 (stereo not drawn) [I.07] |  | 97 |  |  | 97 | 97 | 98 | 4.13 |  |  |  |  |  |  |  |  |  |  | 
4 | Cn1nc(C(F)F)c(C(=S)N(Cc2cccc3c2C2CCC3C2)C2CC2)c1F (stereo not drawn) [I.02] |  | 79 | 97 | 97 |  | 100 | 100 | 4.64 |  |  |  |  |  |  |  |  |  |  | 100
5 | Cn1nc(C(F)F)c(C(=S)N(Cc2cccc3c2C2CCC3C2=C(Cl)Cl)C2CC2)c1F (stereo not drawn) [I.11] |  |  | 100 | 88 |  | 100 | 100 | 5.23 |  |  |  |  |  |  |  |  |  |  | 84
6 | Cn1nc(C(F)F)c(C(=O)N(Cc2cccc3c2C2C=CC3C2)C2CC2)c1F (stereo not drawn) [I.04] |  | 83 | 97 |  | 100 | 98 | 100 | 3.55 |  |  |  |  |  |  |  |  |  |  | 
